In ChEMBL document CHEMBL4673309, “Synthesis and anticancer activity of new coumarin-3-carboxylic acid derivatives as potential lactatetransportinhibitors” (Bioorg Med Chem, 2021):
pIC50: −log10 of the molar value. The source made the active and inactive calls. The rule behind the calls is not given here.

Experiments:
HCT-116 [1] = assay: Cytotoxicity against human HCT-116 cells overexpressing MCT-1 assessed as reduction in cell viability measured after 72 hrs by MTT assay; type: functional, cell-based; conditions: HCT-116, 72 h
NCM460 = assay: Cytotoxicity against human NCM460 cells harboring low MCT1 expression incubated for 72 hrs by MTT assay; type: cell-based; conditions: ncm460, 72 h
HeLa [2] = assay: Cytotoxicity against human HeLa cells overexpressing MCT-1 assessed as reduction in cell viability measured after 72 hrs by MTT assay; type: functional, cell-based
HeLa [3] = assay: Reduction of lactate production in human HeLa cells at IC50 after 8 hrs by colorimetric assay; type: functional, cell-based
HeLa [4] = assay: Inhibition of lactate uptake in human HeLa cells at low concentration after 24 hrs by colorimetric assay; type: functional, cell-based
HCT-116 [5] = assay: Inhibition of lactate transport in human HCT-116 cells assessed as increase in intracellular lactate level at IC50 measured after 8 hrs by colorimetric assay; type: functional, cell-based
HCT-116 [6] = assay: Induction of apoptosis in human HCT-116 cells assessed as late apoptotic cells measured after 48 hrs by annexinV-FITC/propidium iodide staining based by flow cytometry (reference value: 2.78 %); type: functional
HCT-116 [7] = assay: Decrease in intracellular glucose level in human HCT-116 cells at IC50 after 24 hrs by colorimetric assay; type: functional, cell-based
HeLa [8] = assay: Induction of apoptosis in human HeLa cells assessed as early apoptosis measured after 48 hrs by annexinV-FITC/propidium iodide staining based by flow cytometry (reference value: 2.94 %); type: functional
HCT-116 [9] = assay: Downregulation of MCT1 expression in human HCT-116 cells at 0.01 to 100 uM measured after 48 hrs by Western blot analysis; type: functional, cell-based; conditions: dose 0.01-100 µM
HCT-116 [10] = assay: Induction of apoptosis in human HCT-116 cells assessed as early apoptosis measured after 48 hrs by annexinV-FITC/propidium iodide staining based by flow cytometry (reference value: 3.42 %); type: functional
HeLa [11] = assay: Decrease in intracellular glucose level in human HeLa cells at IC50 after 24 hrs by colorimetric assay; type: functional, cell-based
HCT-116 [12] = assay: Reduction of lactate production in human HCT-116 cells at IC50 after 4 to 24 hrs by colorimetric assay; type: functional, cell-based; conditions: time 4-24 hrs
HeLa [13] = assay: Inhibition of lactate transport in human HeLa cells assessed as increase in intracellular lactate level at IC50 measured after 8 to 24 hrs by colorimetric assay; type: functional, cell-based; conditions: time 8-24 hrs
HeLa [14] = assay: Inhibition of lactate uptake in human HeLa cells at high concentration after 24 hrs by colorimetric assay; type: functional, cell-based
HCT-116 [15] = assay: Inhibition of lactate uptake in human HCT-116 cells at 0.01 to 100 uM after 24 hrs by colorimetric assay; type: functional, cell-based; conditions: dose 0.01-100 µM
HeLa [16] = assay: Downregulation of MCT1 expression in human HeLa cells at 0.01 to 100 uM measured after 48 hrs by Western blot analysis; type: functional, cell-based; conditions: dose 0.01-100 µM
HeLa [17] = assay: Antiproliferative activity against human HeLa cells assessed as reduction in cell proliferation at IC50 incubated for 6 days and measured on day 6 by MTS assay; type: functional, cell-based; conditions: time 6.0 day
HCT-116 [18] = assay: Decrease in intracellular glucose level in human HCT-116 cells at IC50 after 4 hrs by colorimetric assay; type: functional, cell-based
HCT-116 [19] = assay: Antiproliferative activity against human HCT-116 cells assessed as reduction in cell proliferation at IC50 incubated for 6 days and measured on day 6 by MTS assay; type: functional, cell-based; conditions: time 6.0 day
HeLa [20] = assay: Decrease in glucose consumption in human HeLa cells at IC50 after 12 hrs by glucose oxidase based colorimetric assay; type: functional, cell-based
HeLa [21] = assay: Induction of apoptosis in human HeLa cells assessed as late apoptotic cells measured after 48 hrs by annexinV-FITC/propidium iodide staining based by flow cytometry (reference value: 3.85 %); type: functional
HCT-116 [22] = assay: Decrease in glucose consumption in human HCT-116 cells at IC50 after 4 to 24 hrs by glucose oxidase based colorimetric assay; type: functional, cell-based; conditions: time 4-24 hrs
HeLa [23] = assay: Decrease in intracellular glucose level in human HeLa cells at IC50 after 4 hrs by colorimetric assay; type: functional, cell-based

| Structure (SMILES) | pIC50 (HCT-116 [1]) | Activity (NCM460) | pIC50 (HeLa [2]) | also measured |
| --- | --- | --- | --- | --- |
| O=C(NCCO)c1cc2ccc(OCc3cccc(Br)c3)cc2oc1=O | 4.51 | Non-Toxic | 4.76 |  |
| O=C(NCCNC(=O)c1cc2ccc(OCc3cccc(Br)c3)cc2oc1=O)c1cc2ccc(OCc3cccc(Br)c3)cc2oc1=O | 4.94 | Non-Toxic | 5.26 |  |
| CCOc1ccc2cc(C(=O)NCCO)c(=O)oc2c1 | < 4.00 | Non-Toxic | < 4.00 |  |
| O=C(NCCNC(=O)c1cc2ccc(OCc3ccccc3)cc2oc1=O)c1cc2ccc(OCc3ccccc3)cc2oc1=O | 4.80 | Non-Toxic | 4.92 |  |
| O=C(NO)c1cc2ccc(OCc3ccccc3)cc2oc1=O | 4.40 | Non-Toxic | 4.50 |  |
| NNC(=O)c1cc2ccc(OCc3ccc([N+](=O)[O-])cc3)cc2oc1=O | < 4.00 | Non-Toxic | < 4.00 |  |
| O=C(NCCO)c1cc2ccc(OCc3ccccc3)cc2oc1=O | 4.73 | Non-Toxic | 4.85 |  |
| CCN(CC)c1ccc2cc(C(=O)NO)c(=O)oc2c1 | 4.42 | Non-Toxic | 4.45 |  |
| CCCOc1ccc2cc(C(=O)NCCO)c(=O)oc2c1 | < 4.00 | Non-Toxic | 4.65 |  |
| CCCOc1ccc2cc(C(=O)NN)c(=O)oc2c1 | 4.16 | Non-Toxic | < 4.00 |  |
| CCN(CC)c1ccc2cc(C(=O)NN)c(=O)oc2c1 | 5.47 | Non-Toxic | 5.26 | inhibition (HeLa [3]): Active; inhibition (HeLa [4]): Active; inhibition (HCT-116 [5]): Active; Activity (HCT-116 [6]): 5.94%; inhibition (HCT-116 [7]): inactive; Activity (HeLa [8]): 5.28%; inhibition (HCT-116 [9]): Active; Activity (HCT-116 [10]): 2.52%; inhibition (HeLa [11]): Active; inhibition (HCT-116 [12]): Active; inhibition (HeLa [13]): Active; inhibition (HeLa [14]): inactive; inhibition (HCT-116 [15]): Active; inhibition (HeLa [16]): Active; Activity (HeLa [17]): Active; inhibition (HCT-116 [18]): Active; Activity (HCT-116 [19]): Active; inhibition (HeLa [20]): Active; Activity (HeLa [21]): 6.47%; inhibition (HCT-116 [22]): Active |
| O=C(NCCNC(=O)c1cc2ccc(OCc3ccc([N+](=O)[O-])cc3)cc2oc1=O)c1cc2ccc(OCc3ccc([N+](=O)[O-])cc3)cc2oc1=O | 4.17 | Non-Toxic | 4.86 |  |
| O=C(Nc1ccccc1)c1cc2ccc(OCc3ccccc3)cc2oc1=O | < 4.00 | Non-Toxic | < 4.00 |  |
| CCN(CC)c1ccc2cc(C(=O)NC(C)C)c(=O)oc2c1 | < 4.00 | Non-Toxic | 4.14 |  |
| CCN(CC)c1ccc2cc(C(=O)NCCO)c(=O)oc2c1 | < 4.00 | Non-Toxic | < 4.00 |  |
| CCN(CC)c1ccc2cc(C(=O)N/N=C(/C)c3cccnc3)c(=O)oc2c1 | < 4.00 | Non-Toxic | 4.15 |  |
| CCN(CC)c1ccc2cc(C(=O)NC3CC3)c(=O)oc2c1 | < 4.00 | Non-Toxic | < 4.00 |  |
| NNC(=O)c1cc2ccc(OCc3cccc(Br)c3)cc2oc1=O | < 4.00 | Non-Toxic | < 4.00 |  |
| CCN(CC)c1ccc2cc(C(=O)N/N=C(/C)c3cccs3)c(=O)oc2c1 | < 4.00 | Non-Toxic | < 4.00 |  |
| N#C/C(=C\c1ccc(O)cc1)C(=O)O [alpha-CYANO-4-HYDROXYCINNAMIC ACID] | 2.78 | Non-Toxic | 2.67 | inhibition (HeLa [3]): Active; inhibition (HeLa [23]): Active; Activity (HCT-116 [6]): 9.36%; Activity (HeLa [8]): 8.8%; Activity (HCT-116 [10]): 2.07%; inhibition (HCT-116 [12]): Active; inhibition (HeLa [13]): Active; Activity (HeLa [17]): Active; Activity (HeLa [21]): 13.6%; inhibition (HCT-116 [22]): Active |
| O=C(NCCO)c1cc2ccc(OCc3ccc([N+](=O)[O-])cc3)cc2oc1=O | 4.48 | Non-Toxic | 5.16 |  |
| NNC(=O)c1cc2ccc(OCc3ccccc3)cc2oc1=O | < 4.00 | Non-Toxic | < 4.00 |  |
| CCOc1ccc2cc(C(=O)NN)c(=O)oc2c1 | < 4.00 | Non-Toxic | 4.42 |  |
| O=c1c(O)c(-c2ccc(O)c(O)c2)oc2cc(O)cc(O)c12 [QUERCETIN] | 4.36 | Non-Toxic | 4.65 | inhibition (HeLa [3]): Active; inhibition (HeLa [23]): Active; Activity (HCT-116 [6]): 10.3%; Activity (HeLa [8]): 4.92%; Activity (HCT-116 [10]): 5.35%; inhibition (HCT-116 [12]): Active; inhibition (HeLa [13]): Active; Activity (HCT-116 [19]): Active; Activity (HeLa [21]): 14.2%; inhibition (HCT-116 [22]): Active |
